This experiment deals with T1, Human MTHFD2 (Homo sapiens, UniProt P13995).
T1 construct: residues 36-350 in Uniport ID P13995; His6 (N); made in house; host or cells: E. coli
T1 sequence (P13995 36-350): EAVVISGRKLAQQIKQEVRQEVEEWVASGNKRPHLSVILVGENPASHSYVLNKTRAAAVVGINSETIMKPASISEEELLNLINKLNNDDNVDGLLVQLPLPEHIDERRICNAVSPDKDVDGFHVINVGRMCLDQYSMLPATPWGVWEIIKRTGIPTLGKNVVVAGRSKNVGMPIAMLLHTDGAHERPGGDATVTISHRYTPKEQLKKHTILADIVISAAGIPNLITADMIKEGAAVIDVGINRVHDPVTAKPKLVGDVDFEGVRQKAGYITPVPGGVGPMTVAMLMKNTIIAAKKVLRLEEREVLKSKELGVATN
Description: MTHFD2 Activity Assay (dehydrogenase activity, diaphorase/resazurin coupled fluorescence). Conditions: inhibitory activity (IC50 and/or binding constant); 0.2 nM MTHFD2, 11 concentrations. The class given is biochemical. An outline of the steps: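 Resorufin fluorescence (ex 525, em 598 nm) reports NADH formed by the dehydrogenase via diaphorase coupling. Enzyme (0.2 nM, residues 36-350, N-His6) sat with compound 15 min before 70 μM CH2-THF and 1 mM NAD+ started a 30 min reaction. IC50s come from 4-parameter fits over 11 concentrations.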
(The colour change of resazurin is a common sign of viable cells or microbes.)
`Cn1c(Nc2ccnc([C@@H]3C[C@H]3C(=O)O)c2)nc2c1c(=O)n(Cc1cc3c(Cl)cccc3[nH]1)c(=O)n2C` (single isomer, unassigned) [Example 322, (1R,2R)-2-(4-((1-((4-chloro-1H-indol-2-yl)methyl)-3,7-dimethyl-2,6-dioxo-2,3,6,7-tetrahydro-1H-purin-8-yl)amino)pyridin-2-yl)cyclopropanecarboxylic acid or (1S,2S)-2-(4-((1-((4-chloro-1H-indol-2-yl)methyl)-3,7-dimethyl-2,6-dioxo-2,3,6,7-tetrahydro-1H-purin-8-yl)amino)pyridin-2-yl)cyclopropanecarboxylic acid]: the half-maximal inhibitory concentration (IC50) fell in the range of 10 to 1000 nM.
Then `Cn1c(Nc2ccnc([C@@H]3C[C@H]3CO)c2)nc2c1c(=O)n(Cc1ccc(Cl)c(Cl)c1)c(=O)n2C` (single isomer, unassigned) [Example 337, 1-(3,4-dichlorobenzyl)-8-((2-((1R,2R)-2-(hydroxymethyl)cyclopropyl)pyridin-4-yl)amino)-3,7-dimethyl-1H-purine-2,6(3H,7H)-dione or 1-(3,4-dichlorobenzyl)-8-((2-((1S,2S)-2-(hydroxymethyl)cyclopropyl)pyridin-4-yl)amino)-3,7-dimethyl-1H-purine-2,6(3H,7H)-dione], with 1000 to 5000 nM.
Then `Cn1c(Nc2ccnc([C@@H]3C[C@H]3CO)c2)nc2c1c(=O)n(Cc1ccc(Cl)c(Cl)c1)c(=O)n2C` (single isomer, unassigned) [Example 338, 1-(3,4-dichlorobenzyl)-8-((2((1R,2R)-2-(hydroxymethyl)cyclopropyl)pyridin-4-yl)amino)-3,7-dimethyl-1H-purine-2,6(3H,7H)-dione or 1-(3,4-dichlorobenzyl)-8-((2-((1S,2S)-2-(hydroxymethyl)cyclopropyl)pyridin-4-yl)amino)-3,7-dimethyl-1H-purine-2,6(3H,7H)-dione], with 5000 to 10000 nM; and `Cn1c(Nc2ccnc([C@H]3C[C@@H]3C(=O)O)c2)nc2c1c(=O)n(Cc1cc3c(Cl)cccc3[nH]1)c(=O)n2C` (single isomer, unassigned) [Example 363, (1S,2S)-2-(4-((1-((4-chloro-1H-indol-2-yl)methyl)-3,7-dimethyl-2,6-dioxo-2,3,6,7-tetrahydro-1H-purin-8-yl)amino)pyridin-2-yl)cyclopropanecarboxylic acid or (1R,2R)-2-(4-((1-((4-chloro-1H-indol-2-yl)methyl)-3,7-dimethyl-2,6-dioxo-2,3,6,7-tetrahydro-1H-purin-8-yl)amino)pyridin-2-yl)cyclopropanecarboxylic acid], with 10 to 1000 nM.
Then `Cn1c(Nc2cccc([C@@H]3C[C@H]3C(=O)O)n2)nc2c1c(=O)n(Cc1cc3c(Cl)cccc3[nH]1)c(=O)n2C` (single isomer, unassigned) [Example 398, (1R,2R)-2-(6-((1-((4-chloro-1H-indol-2-yl)methyl)-3,7-dimethyl-2,6-dioxo-2,3,6,7-tetrahydro-1H-purin-8-yl)amino)pyridin-2-yl)cyclopropanecarboxylic acid or (1S,2S)-2-(6-((1-((4-chloro-1H-indol-2-yl)methyl)-3,7-dimethyl-2,6-dioxo-2,3,6,7-tetrahydro-1H-purin-8-yl)amino)pyridin-2-yl)cyclopropanecarboxylic acid], with 10 to 1000 nM.
`C[C@H](N)c1nc2c(c(=O)n(Cc3cc4c(Cl)cccc4[nH]3)c(=O)n2C)n1C` (single isomer, unassigned) [Example 435, (S)-8-(1-aminoethyl)-1-((4-chloro-1H-indol-2-yl)methyl)-3,7-dimethyl-1H-purine-2,6(3H,7H)-dione or (R)-8-(1-aminoethyl)-1-((4-chloro-1H-indol-2-yl)methyl)-3,7-dimethyl-1H-purine-2,6(3H,7H)-dione] had a half-maximal inhibitory concentration (IC50) of 10 to 1000 nM.

One may read the IC50 as the concentration that gives 50% inhibition. A lower IC50 goes with greater potency.

For the origin of these results see patent US12187728B2 (Raze Therapeutics, Inc., priority 2015, dated 2025).
